Experimental data published in patent US12398122B2, “Resolvin analogs compounds, methods and uses thereof” (VALORISATION RECHERCHE HSCM, LIMITED PARTNERSHIP, priority 2022, dated 2025).

Tests used:
[1] = system: osteoclasts from monocytes of peripheral blood of healthy donors; test: Osteoclast recruitment: differentiation of peripheral blood monocytes into osteoclasts (TRAP-positive cells); format: cell-based, human; settings: 500 ng, 14 days, 50 ng/ml RANKL + 10 ng/ml M-CSF, 2×10^5 monocytes/chamber (n=3)
Method: The effect of RvD1 analogs on the differentiation of macrophages into osteoclasts was investigated. Monocytes from peripheral blood of healthy donors were cultured in culture chambers at 2×10^5 monocytes/chamber in the presence of 50 ng/ml RANKL+10 ng/ml M-CSF for 14 days, in the presence or absence of 500 ng of compounds I-1 and I-2 (n=3).

[2] = Ultraviolet-induced hyaluronic acid (HA) degradation; settings: 1 μM, HA 1 mg/ml in PBS, UV for 4 hours (n=3)
Method: In order to study the protective effect of RvD1 and its analogs on the stability of hyaluronic acid (HA), a solution of commercial HA was prepared in PBS at a concentration of 1 mg/ml, then exposed to Ultraviolet rays (UV) for 4 hours in the presence or absence of RvD1 and compounds I-1 and I-2 at a dose of 1 μM. 20 μg of HA were loaded into an agarose gel (1% prepared in TBE buffer). After 4 hours of migration at 40 volts, the HA was visualized after staining with Stains-All dissolved in 30% ethanol.

COX-2 [3] = test: COX-2 expression in human OA chondrocytes by Western blot; format: cell-based; settings: 10 μM, 1 hour then IL-1β 1 ng/ml for 24 hours
Method: Cells were seeded in 24-well flat plates at a confluence of 5×10^5 cells per well in 10% FBS DMEM medium and incubated for 24 h at 37° C. Then, the cells were treated with I-1 at different doses (0-10 μM) for 1 hour followed by a second treatment with IL-1β for 24 hours (1 ng/ml). COX-2 expression was assessed by Western blot by specific anti-COX-2 antibody.

MMP-13 = test: Inhibition of MMP-13 production in human OA chondrocytes; format: cell-based; settings: Chondrocyte, IL-1β 1 ng/ml one hour then compound 24 hours
Method: The effect of RvD1 analogs on the expression of MMP-13, a key enzyme involved in the degradation of OA cartilage, was investigated. Chondrocytes from human osteoarthritic cartilage were treated with IL-1β (1 ng/ml) for one hour followed by another treatment with RvD1 and its analogues for 24 hours.

[4] = system: human monocyte-derived osteoclasts; test: Hydroxyapatite matrix resorption by human monocyte-derived osteoclasts (von Kossa staining); format: cell-based; settings: 500 nM, M-CSF/RANKL-differentiated cells, p<0.01 (n=3)
From the text: The effect of RvD1 analogs on the resorption activity of human monocyte-derived osteoclasts was investigated. Results were obtained as described in Benabdoun et al. 2019 and are shown in FIG. 10, where data were expressed as % resorption area/osteoclast with three nuclei or more (n=3).

[5] = system: human isolated monocytes/macrophages-RANKL/M-CSF-derived osteoclasts; test: TRAP staining, osteoclast differentiation of RANKL/M-CSF-treated human monocytes; format: cell-based; settings: 500 nM, 14 days, 50 ng/ml RANKL and 10 ng/ml M-CSF
Method: (§1) Murine macrophage RAW 264.7 (ATCC, Manassas, VA, USA) were cultured with AMEM/10% FBS and antibiotics at 37° C. in a humidified atmosphere with 5% CO2. Primary human monocytes were isolated from whole blood obtained from healthy volunteers. Briefly, blood was centrifuged on a Ficoll-Paque density gradient, according to the manufacturer's recommendations. Isolated monocytes were then cultured in RPMI 1640 medium supplemented with 10% FBS, and antibiotics. All donors provided written, informed consent for the use of their blood for research purposes. Experimental protocols were approved by the Research Ethics Board of the “Hôpital du Sacré-Coeur de Montreal”.
Isolated human monocytes were isolated as described previously, seeded in chambered cell culture slides at 8×10^4 cells/well, and treated with 50 ng/ml RANKL and 10 ng/ml M-CSF in the presence or absence of 500 nM of compounds I-1 and I-2 for 14 days. Culture medium was changed every 3 days. TRAP staining performed as recommended by the manufacturer. […] Results are shown in FIG. 3, where arrows show osteoclasts with three nuclei or more (b). R=RANKL; M=M-CSF.
Here, the impact of RvD1 analogues treatment on human isolated monocytes/macrophages-RANKL/M-CSF-derived osteoclasts was eveluated, by measuring their phenotypic markers, namely TRAP. […]

TNFα = test: Inhibition of IL-1β-induced TNFα production in Raw264.7; format: cell-based, mouse; settings: Raw264.7, 1 μM, pretreated 1 h then 1 ng/ml IL-1β for 24 h, compared to IL-1β alone
Method: as §1
It is well-documented that the RvD1 is considered as a potent anti-inflammatory mediator. Thus, the purpose of this part of the present study was to investigate whether compounds I-1 and I-2's capacity to inhibit pro-inflammatory cytokines, such as TNFα. To do so, Raw264.7 were pretreated with compounds I-1 and I-2 at different concentrations (0, 0.1, 0.5, and 1-μM) for 1h, followed by exposure to 1 ng/ml IL-1β for 24 h. […] As such, it may be concluded that compounds I-1 and I-2 inhibit TNFα production.

[6] = H2O2-induced hyaluronic acid fragmentation (agarose gel, Stains-All); settings: HA 1 mg/ml, pretreated 1 hour at 1 or 10 μM, then 1 mM H2O2 for 4 hours; preliminary data
Method: Commercial hyaluronic acid was solubilised in sterilized PBS (1 mg/ml) during overnight under gentile shaking. The solution was pretreated with N-acetyl-Cysteine (NAC), RvD1, compounds I-1 and I-2 at 1 or 10 μM for 1 hour and then treated with 1 mM H2O2 during 4 hours. Samples were mixed in loading buffer containing 1M sucrose and loaded in 1% agarose/1× Tris-borate-EDTA (TBE) and pre-run the gel for 6 hours at 40V in 1× TBE buffer. The gel was then equilibrated with 30% ethanol in water and stained with Stains-All solution containing 0.1 mg Stains-All and 30% ethanol for overnight in the dark. Next, the gel was equilibrated in water for 1 hour and then exposed to light for destaining. Finally, hyaluronic acid was visualized using Alpha Imager under light transillumination. Results are shown in FIG. 4, where arrows show hyaluronic acid fragments (n=2), Al=I-1; A2=I-2.
This part of experiments was designed to investigate the ability of RvD1 analogues to protect hyaluronic acid against H2O2-induced degradation (antioxidant effect). To do so, the polymer at 1 mg/ml was pretreated by RvD1 and their analogues for 1 hour and then after treated with 1 mM H2O2 for 4 hours.

human OA chondrocytes = test: Reactive oxygen species (ROS) production in human OA chondrocytes (DCFH-DA probe); format: cell-based; settings: 1 μM, 0.5 mM H2O2 for 2 hours
Method: In a second step, the study was continued to explore the antioxidant effect of RvD1 and compounds I-1 and I-2 in a cell medium. Thus, human OA chondrocytes with osteoarthritis were seeded in black plates at a rate of 5×10^4 cells per well in 10% FBS DMEM medium (phenol red free) and incubated for 24 h at 37° C., and then treated with 0.5 mM H2O2 for 2 hours in the presence or absence of RvD1 and the compounds I-1 and I-2 at a concentration of 1 μM. The generation of ROS was measured by the addition of 10 μM of the DCFH-DA probe and fluorescence was measured using a microplate reader with Fluorescence Polarization (Polar Star Optima, BMG Labtech) set up at ex. 485 nm and em. 530 nm.

[7] = Reactive oxygen species (ROS) production in acellular environment (DCFH-DA probe); settings: 1 μM, ROS generated with CuCl2 (1 mM) and H2O2 (1 mM) for 10 min
Method: ROS were generated by incubating in black 96-well plate with CuCl2 (1 mM) with H2O2 (1 mM) for 10 min. Subsequently, RvD1, I-1 and I-2 at 1 μM were added before the addition of the DCFH-DA probe.

Raw264.7 macrophages = test: Cell viability (MTS) assay, cytotoxicity in Raw 264.7 macrophages; format: cell-based, mouse; settings: Raw264.7 macrophages, 0, 0.1, 0.25, 0.5 and 1 μM, 24 h incubation
Method: Murine macrophage RAW 264.7 (ATCC, Manassas, VA, USA) were cultured with AMEM/10% FBS and antibiotics at 37° C. in a humidified atmosphere with 5% CO2. Primary human monocytes were isolated from whole blood obtained from healthy volunteers. Briefly, blood was centrifuged on a Ficoll-Paque density gradient, according to the manufacturer's recommendations. Isolated monocytes were then cultured in RPMI 1640 medium supplemented with 10% FBS, and antibiotics. All donors provided written, informed consent for the use of their blood for research purposes. Experimental protocols were approved by the Research Ethics Board of the “[…] du Sacré-Coeur de Montreal”. Raw264.7 cells were treated for 24 hours with increasing concentrations of compounds I-1 and I-2 (0, 0,1, 0,25, 0,5, and 1 μM). Cell viability was assessed with MTS assay kit (Promega Corporation, Madison, WI, USA), as described by the manufacturer. Absorbance was measured with the micro-ELISA Vmax photometer (Bio-Tek Instruments, Winooski, VT, USA). Cell viability was evaluated by 3-(4,5-dimethyl-thiazoyl)-2,5-diphenyl-SH-tetrazolium bromide assay. ANOVA test was performed to compare the results. Results are expressed as mean±SEM for n=3. This part of the experiment was designed to test the cytotoxic effect of compounds 1-1 and 1-2 on mouse Raw264.7 macrophages. […]

COX-2 [8] = test: COX-2 protein expression by Western blotting in Raw264.7 macrophages; format: cell-based, mouse; settings: Raw264.7 macrophages, 0, 0.25, 0.5, 1 μM for 1 hour, then 1 ng/ml IL-1β for 24 hours (n=2)
Method: 20 μg of total proteins of Raw264.7 macrophages lysates, treated under the indicated conditions, were loaded for discontinuous 4-12% sodium dodecyl sulfate-polyacrylamide gel electrophoresis. They were then transferred electrophoretically onto nitrocellulose membranes (Bio-Rad Laboratories, Mississauga, ON, Canada) for protein immunodetection and semi-quantitative measurement. The primary antibodies deployed were rabbit anti-COX-2 (Cayman Chemical Company) and mouse anti-β-actine (Sigma). […] Immunoreactive proteins were detected with SuperSignal blotting substrate (Pierce, Rockford, IL) and exposed to Kodak X-Omat™ film (Eastman Kodak Company, Rochester, NY).
Here, the hypothesis whether RvD1 analogues have the ability to modulate COX-2 protein expression was tested. Raw264.7 macrophages were pretreated with increasing doses of compound I-2 (0, 0.25, 0.5, 1-μM) for 1 hour and treated then after with 1 ng/ml IL-1β for 24 hours.

Compound | formation of osteoclasts (3 or more nuclei) [1] | HA degradation by UV exposure [2] | COX-2 expression (COX-2 [3]) | inhibition at 20 µM (MMP-13) [%] | erosion of the hydroxyapatite matrix (% resorption area/osteoclast) [4] | osteoclasts differentiation (TRAP) [5] | reduction of TNFα level (TNFα) [%] | H2O2-induced hyaluronic acid fragmentation [6] | generation of ROS by chondrocytes (human OA chondrocytes) | level of ROS in acellular medium [7] | cell viability (Raw264.7 macrophages) | inhibition at 10 µM (MMP-13; 10 μM) [%] | IL-1β-induced COX-2 protein expression (COX-2 [8])
CCCCC[C@H](O)c1c(/C=C/[C@@H](O)[C@@H](O)C/C=C\CCC(=O)OC)nc(C)n1C [I-1, methyl (4Z,7S,8R,9E)-7,8-dihydroxy-10-(5-((S)-1-hydroxyhexyl)-1,2-dimethyl-1H-imidazol-4-yl)deca-4,9-dienoate] | inhibited the formation of large osteoclasts | prevents HA degradation by UV exposure | reduces COX-2 expression | ~20 | significantly reduced erosion of the hydroxyapatite matrix to almost control level | strongly prevent osteoclasts differentiation | 40 | prevent H2O2-induced fragmentation | significantly reduced the generation of ROS | level of ROS decreases | did not alter the cell viability |  | 
CC/C=C\C[C@H](O)/C=C/C=C\C=C\C=C\[C@@H](O)[C@@H](O)C/C=C\CCC(=O)O [RvD1, 7S,8R,17S-trihydroxy-4Z,9E, 11E,13Z,15E,19Z-docosahexaenoic acid, reference compound] |  | prevents HA degradation by UV exposure |  |  |  |  |  | prevent H2O2-induced fragmentation | significantly reduced the generation of ROS | level of ROS decreases |  | ~20 | 
CCCCC[C@H](O)c1c(/C=C/[C@@H](O)[C@@H](O)C/C=C\CCC(=O)O)nc(C)n1C [I-2, (4Z,7S,8R,9E)-7,8-dihydroxy-10-(5-((S)-1-hydroxyhexyl)-1,2-dimethyl-1H-imidazol-4-yl)deca-4,9-dienoic acid] | inhibited the formation of large osteoclasts | prevents HA degradation by UV exposure |  | ~20 | significantly reduced erosion of the hydroxyapatite matrix to almost control level | strongly prevent osteoclasts differentiation | 40 | prevent H2O2-induced fragmentation | significantly reduced the generation of ROS | level of ROS decreases | did not alter the cell viability |  | reduced IL-1β-induced COX-2 protein expression
